Reference: publication PMC12700550, “DLL4^+ neutrophils promote Notch1-mediated endothelial PANoptosis to exacerbate acute lung injury in sepsis” (The Journal of Clinical Investigation, 2025)
Values joined by “and” are separate entries in the source; they are usually repeats but may differ in a detail not shown here. Equal entries are not always repeated.

Tests used:
C57BL/6 mice, CLP sepsis [1] = assay: 10-day survival, CLP mice; assay type: in vivo, mouse; settings: 10 mg/kg NDI
Method: Sepsis was induced in mice by cecal ligation and puncture (CLP) as described previously ([45], [46]). Mice were anesthetized with isoflurane to a surgical plane and placed in a supine position. CLP was performed through a midline laparotomy. The abdomen was shaved and disinfected. Through a 2 cm midline incision, the cecum was exposed and then ligated with a 4-0 silk suture 1 cm proximal from the distal cecal extremity. For 20-hour CLP experiments, the cecum was punctured twice with a 22-gauge needle. A small amount of cecal content was extruded through both holes, and the ligated cecum was returned to the peritoneal cavity. The wound was closed in layers. For 10-day sepsis survival studies, the cecum was punctured once with a 22-gauge needle. A small amount of cecal content was extruded. Mice were allocated to the vehicle and adoptive transfer of DLL4^+ neutrophils or DLL4^– neutrophils groups. Adoptive transfer mice received a retro-orbital injection of 1 × 10^6 cells per mouse DLL4^+ neutrophils or DLL4^– neutrophils in […] phosphate-buffered saline (PBS) immediately after abdominal closure in both the 20-hour experiments and the survival study. Vehicle groups received an equivalent volume of PBS, while treatment groups received NDI 10 mg/kg in […] PBS via retro-orbital injection after CLP. This dose was chosen primarily on the basis of our laboratory’s prior experience, we have consistently used this dose in mouse CLP models with reproducible efficacy and without observable toxicity ([39], [44]). Sham-operated animals underwent a laparotomy without CLP. After closure, the mice received a subcutaneous injection of 0.5 mL of normal saline to overcome surgery-induced dehydration. […]
Data represented in the figures are expressed as mean ± SEM and were compared by 2-tailed Student’s t test for 2 groups or 1-way ANOVA using Student-Newman-Keuls post hoc analysis for multiple groups. Survival rates were analyzed by the Kaplan-Meier estimator and compared using a log-rank test. […]

C57BL/6 mice, CLP sepsis [2] = assay: Serum alanine aminotransferase (ALT), CLP mice; assay type: in vivo, mouse; design: serum ALT (Figure 6A): unit not given here; settings: 20 h; for serum ALT (Figure 6A): 10 mg/kg NDI, individual mice
Method: Sepsis was induced in mice by cecal ligation and puncture (CLP) as described previously ([45], [46]). Mice were anesthetized with isoflurane to a surgical plane and placed in a supine position. CLP was performed through a midline laparotomy. The abdomen was shaved and disinfected. Through a 2 cm midline incision, the cecum was exposed and then ligated with a 4-0 silk suture 1 cm proximal from the distal cecal extremity. […] A small amount of cecal content was extruded through both holes, and the ligated cecum was returned to the peritoneal cavity. The wound was closed in layers. […] A small amount of cecal content was extruded. […] Vehicle groups received an equivalent volume of PBS, while treatment groups received NDI 10 mg/kg in […] PBS via retro-orbital injection after CLP. This dose was chosen primarily on the basis of our laboratory’s prior experience, we have consistently used this dose in mouse CLP models with reproducible efficacy and without observable toxicity ([39], [44]). Sham-operated animals underwent a laparotomy without CLP. After closure, the mice received a subcutaneous injection of 0.5 mL of normal saline to overcome surgery-induced dehydration. […] All mice were subcutaneously injected with a single dose of 0.1 mg/kg buprenorphine after CLP. Serum levels of alanine aminotransferase, aspartate aminotransferase, and lactate dehydrogenase were determined using specific colorimetric enzymatic assays (Pointe Scientific Inc.) according to the manufacturer’s instructions.

## ECAGSPCHNGGTCEDGI [NDI]
C57BL/6 mice, CLP sepsis [1]; N = 20, PBS-injected 15%
  survival rate, 10 days: 75%
C57BL/6 mice, CLP sepsis [1]; individual mice, code 0 stands at day 10, 1 at earlier days (meaning not given), 10 mg/kg
  survival event code (Figure 6M): 1 and 0
C57BL/6 mice, CLP sepsis [1]; no exogenous neutrophils, individual mice, event code in next endpoint, 10 mg/kg
  survival time (Figure 6M): 3 days and 6 days and 10 days and 2 days and 4 days
C57BL/6 mice, CLP sepsis [2]; DLL4^+ neutrophil-injected CLP mice, 10 mg/kg
  effect on serum ALT: significantly reduced the serum levels of hepatic and cell injury markers and proinflammatory cytokines
C57BL/6 mice, CLP sepsis [2]; DLL4^+ neutrophils + CLP
  serum ALT (Figure 6A): 41.99 and 15.47 and 55.25 and 44.642 and 25.194 and 38.454 and 50.83 and 38.896 and 29.172 and 10.94 and 28.288 and 3.978 and 26.078 and 2.21
C57BL/6 mice, CLP sepsis [2]; DLL4^– neutrophils + CLP
  serum ALT (Figure 6A): 37.57 and 15.028 and 26.52 and 77.35 and 30.94 and 22.1 and 12.818 and 10.608
